Test results published in the NIST ThermoML archive (doi:10.1016/j.fluid.2010.12.008).
Numbers after ± are expanded uncertainties.

How the values were obtained:
[1] = for Normal melting temperature: Crystal 1
[2] = Molar enthalpy of transition or fusion; details: DSC

## CCCCCCCO [heptan-1-ol]
[1]; visual observation
  Normal melting temperature: -34.60 ± 1.1 °C

## CCCC[N+]1(C)CCCCC1.N#C[S-] [1-butyl-1-methylpiperidinium thiocyanate]
[2]; Crystal 1
  Molar enthalpy of transition or fusion: 3.02 ± 0.2 kJ/mol
[2]; Crystal 2
  Molar enthalpy of transition or fusion: 15.3 ± 0.49 kJ/mol
[1]; DTA
  Normal melting temperature: 31.17 ± 0.5 °C
[1]; Crystal 2, DTA
  Triple point temperature: 274.2 ± 0.5 K
[1]; Glass, DTA
  Glass transition temperature: -71.8 ± 10 °C

## O [water]
[1]; visual observation
  Normal melting temperature: 0.00 ± 1.1 °C

## CCCCCCCCCCO [decan-1-ol]
[1]; visual observation
  Normal melting temperature: 7.00 ± 1.1 °C

## CCCCCCCCO [octan-1-ol]
[1]; visual observation
  Normal melting temperature: -16.00 ± 1.1 °C

## CCCCCCO [hexan-1-ol]
[1]; visual observation
  Normal melting temperature: -45.00 ± 1.1 °C

## CCCCCCCCCCCCO [dodecan-1-ol]
[1]; visual observation
  Normal melting temperature: 24.00 ± 1.1 °C

## CC[N+]1(C)CCCCC1.O=S(=O)([N-]S(=O)(=O)C(F)(F)F)C(F)(F)F
[2]; Crystal 1
  Molar enthalpy of transition or fusion: 16.6 ± 0.52 kJ/mol
[2]; Crystal 2
  Molar enthalpy of transition or fusion: 3.53 ± 0.19 kJ/mol
[2]; Crystal 3
  Molar enthalpy of transition or fusion: 2.45 ± 0.17 kJ/mol
[1]; DTA
  Normal melting temperature: 84.89 ± 0.5 °C
[1]; visual observation
  Normal melting temperature: 84.56 ± 0.5 °C
[1]; Crystal 2, visual observation
  Triple point temperature: 289.6 ± 0.5 K
[1]; Crystal 3, DTA
  Triple point temperature: 215.8 ± 0.5 K
